Test results as given in PMC9926234, “Iterative computational design and crystallographic screening identifies potent inhibitors targeting the Nsp3 macrodomain of SARS-CoV-2” (Proceedings of the National Academy of Sciences of the …, 2023).

What was measured:
[1] = target: T1, SARS-CoV-2 NSP3 Mac1 (Severe acute respiratory syndrome coronavirus 2, UniProt P0DTD1); type: binding; set-up: contains a conserved macrodomain enzyme (Mac1); conditions: maximal thermal upshift vs DMSO control
Protocol: DSF and associated compound handling was performed as described ([12]), with 5 µM dye “Fluorescent Yellow” (Jacquard iDye Cat #JID1405) used in place of SYPRO Orange. Compounds were tested in triplicate, at seven concentrations in two-fold serial dilutions, at a top concentration of either 1,000 or 100 μM. To minimize experimental noise arising from plate location-based effects on Tma, all concentrations and replicates for each compound were tested within a single region of the microtiter plates, including a DMSO-only control from which ΔTmas were calculated for that compound. […] For each compound, to determine statistical significance of the dose responsive thermal shift, the Spearman’s coefficient was calculated between compound concentration and ΔTma.

[2] = target: T1, SARS-CoV-2 NSP3 Mac1; type: binding; conditions: true hit = binding in crystallographic soaking or the HTRF-based binding assay

Row | SMILES | DSF max dTma [1] | HIT* [2]
1 | CC(C)c1noc(CCc2nc(-c3ccnc4[nH]ccc34)no2)n1 [Z1347] | 0 °C | –
2 | Cc1cc(CSc2nnc3c(=O)[nH]c4ccccc4n23)no1 [Z1628] | 0.68 °C | –
3 | Cc1ccccc1CNc1ncnc(-c2ccccc2)n1 [Z1635] | 0.85 °C | –
4 | Cc1ccc(C(=O)N2CC[C@H](Oc3ccccc3)C2)cc1O [Z2024] | 0.36 °C | –
5 | O=C(COC(=O)c1ccc2nsnc2c1)c1ccccc1 [Z2380] | 0.47 °C | –
6 | Cc1ccc(CC(=O)OCc2noc(C3CC3)n2)cc1O [Z2995] | 0.32 °C | –
7 | CN(c1cc(NC2CC2)ncn1)C1CCCN(c2cccnn2)C1 (stereo not drawn) [Z3167] | 0.44 °C | –
8 | CN(Cc1ncc(Cl)n1C)c1ncnc(N)n1 [Z3291] | 0.98 °C | –
9 | O=C(Nc1nc2ccccc2c(=O)[nH]1)c1cccnc1 [Z3628] | 0.49 °C | –
10 | CN(C(=O)CN1CCNC(=O)C1)c1ccc(-c2nccs2)cc1 [Z3700] | 0 °C | –
11 | Cc1oc(-c2cccs2)nc1Cc1nc(-c2cncnc2N)no1 [Z3789] | 0.56 °C | –
12 | Cc1cc(-n2cncn2)ccc1C(=O)OCC1OCCc2ccccc21 (stereo not drawn) [Z3896] | 0.63 °C | –
13 | Cc1ccccc1CC(C)c1nc(-c2cc(N)ncn2)no1 (stereo not drawn) [Z4066] | 0.98 °C | –
14 | CC(C(=O)N1CCCC1c1nc(C(N)=O)no1)c1cccc(F)c1 (stereo not drawn) [Z4135] | 0.15 °C | –
15 | O=C(c1cccc(O)c1)N1CC=C(c2ccccc2)C1 [Z4141] | 0.71 °C | –
16 | O=C(c1cccc(O)c1)N1CCC(Nc2ccccc2)C1 (stereo not drawn) [Z4508] | 0.37 °C | –
17 | Cc1nc2c(C(=O)OCc3ccnc(N(C)C)c3)ccnc2[nH]1 [Z4620] | 1.08 °C | –
18 | COC(=O)CC1CN(c2ncnc3[nH]ccc23)c2ccccc21 (stereo not drawn) [Z4911] | 0.79 °C | –
19 | Nc1cc(-c2noc(CCn3cccn3)n2)ncn1 [Z5086] | 1.48 °C | –
20 | CC1c2ccc(F)cc2CCN1C(=O)c1cccc(O)c1 (stereo not drawn) [Z5167] | 0 °C | –
21 | Cc1nc(Cc2noc(Cc3ccc4[nH]ncc4c3)n2)no1 [Z5262] | 0.45 °C | –
22 | Fc1ccc(F)c(Sc2ncnc3[nH]ccc23)c1 [Z5289] | 1.24 °C | –
23 | Cc1csc(=Nc2ccccc2)n1Cc1nnc2n1CCNC2=O [Z5356] | 0.51 °C | –
24 | O=C(c1c(F)ccc(O)c1F)N1CCC(Oc2cccc(F)c2)C1 (stereo not drawn) [Z5547] | 0.07 °C | –
25 | CC(c1ccc(Cl)c(Cl)c1)S(=O)(=O)Cc1cn[nH]c1 (stereo not drawn) [Z5728] | 0 °C | –
26 | Nc1ncnc2c1ncn2CCCc1ccsc1 [Z5972] | 0.51 °C | –
27 | Cc1ccc(-c2noc(C3CC(=O)N(c4cn[nH]c4)C3)n2)cc1 (stereo not drawn) [Z6019] | 0.27 °C | –
28 | CNc1cc(-c2noc(CN3CCCC3=O)n2)ncn1 [Z6028] | 0.33 °C | –
29 | N#Cc1cccc(-n2ccc(C(=O)OCc3cccnc3)n2)c1 [Z6395] | 0.18 °C | –
30 | O=C(NC1c2cccc(O)c2CC1C(=O)O)c1ccc(Nc2cccnc2)cc1 (stereo not drawn) [Z8539_0018] | – | Y
